How the values were obtained:
[1] = tested on: Human oral epidermoid carcinoma KB cells; test: Cell growth inhibition assay (methylene blue dye), KB cells; format: cell-based; conditions: KB cells, bands, read-out: IC50, inhibiting proliferation of KB cells (band)
Procedure: Anticancer activities of the aryl substituted sulfonamide compounds synthesized in the above examples were evaluated by testing their inhibitory effects on mammalian cancer cell growth.
Human oral epidermoid carcinoma KB cells, non small cell lung carcinoma H460 cells, colorectal carcinoma HT29 cells, and stomach carcinoma MKN45 cells were maintained in RPMI-1640 medium supplied with 5% fetal bovine serum. The cells were treated with the test compound at various concentrations for 72 h.

SMILES	melting point [°C]	IC50 [1] [nM]
COc1ccc(S(=O)(=O)n2ccc3cccc(-c4ccc(F)cc4)c32)cc1 [Compound 19, 7-(4-fluoro-phenyl)-1-(4-methoxy-benzenesulfonyl)-1H-indole]	181.2 to 182.4	
COc1ccc(S(=O)(=O)N2CCc3cccc(-c4ccc(N)cc4)c32)cc1 [Compound 20, 4-[1-(4-methoxy-benzenesulfonyl)-2,3-dihydro-1H-indol-7-yl]-phenylamine]	183.9 to 185.6	100 to 700
COc1ccc(S(=O)(=O)N2CCc3cccc(-c4ccc(F)c(F)c4)c32)cc1 [Compound 21, 7-(3,4-difluoro-phenyl)-1-(4-methoxy-benzenesulfonyl)-2,3-dihydro-1H-indole]	180.2 to 181.4	1 to 99
COc1ccc(-c2cccc3c2N(S(=O)(=O)c2ccc(OC)cc2)CC3)cc1 [Compound 23, 1-(4-methoxy-benzenesulfonyl)-7-(4-methoxy-phenyl)-2,3-dihydro-1H-indole]	176.3 to 177.4	100 to 700
COc1ccc(S(=O)(=O)N2CCc3cccc(-c4ccc(F)nc4)c32)cc1 [Compound 25, 7-(6-fluoro-pyridin-3-yl)-1-(4-methoxy-benzenesulfonyl)-2,3-dihydro-1H-indole]	139.8 to 141.7	100 to 700
COc1ccc(S(=O)(=O)N2CCc3cccc(-c4ccc(O)cc4)c32)cc1 [Compound 26, 4-[1-(4-methoxy-benzenesulfonyl)-2,3-dihydro-1H-indol-7-yl]-phenol]	179.4 to 180.5	100 to 700
COc1ccc(S(=O)(=O)N2CCc3cccc(-c4ccc(F)cc4)c32)cc1 [Compound 28, 7-(4-fluoro-phenyl)-1-(4-methoxy-benzenesulfonyl)-2,3-dihydro-1H-indole]	178.1 to 179.4	1 to 99
COc1ccc(S(=O)(=O)N2CCc3cccc(-c4ccco4)c32)cc1 [Compound 29, 7-furan-2-yl-1-(4-methoxy-benzenesulfonyl)-2,3-dihydro-1H-indole]	176.7 to 177.7	1 to 99
COc1ccc(S(=O)(=O)N2CCc3cccc(-c4cc(OC)c(OC)c(OC)c4)c32)cc1 [Compound 32, 1-(4-methoxy-benzenesulfonyl)-7-(3,4,5-trimethoxy-phenyl)-2,3-dihydro-1H-indole]	202.5 to 204.8	
COc1ccc(S(=O)(=O)N2CCc3cccc(-c4cccc(F)c4)c32)cc1 [Compound 35, 7-(3-fluoro-phenyl)-1-(4-methoxy-benzenesulfonyl)-2,3-dihydro-1H-indole]	180 to 181.3	
COc1ccc(S(=O)(=O)N2CCc3cccc(-c4ccc(C=CC(=O)NO)cc4)c32)cc1 [Compound 41, N-hydroxy-3-{4-[1-(4-methoxy-benzenesulfonyl)-2,3-dihydro-1H-indol-7-yl]-phenyl}-acrylamide]	200 to 201	
NS(=O)(=O)c1ccc(S(=O)(=O)N2CCc3cccc(-c4ccc(F)cc4)c32)cc1 [Compound 42, 4-[7-(4-fluoro-phenyl)-2,3-dihydro-indole-1-sulfonyl]-benzenesulfonamide]	188.7 to 190.2	
NS(=O)(=O)c1ccc(S(=O)(=O)N2CCc3cccc(-c4ccncc4)c32)cc1 [Compound 43, 4-(7-pyridin-4-yl-2,3-dihydro-indole-1-sulfonyl)-benzenesulfonamide]	241.7 to 242.9	
COc1ccc(S(=O)(=O)n2ccc3ccnc(-c4cccs4)c32)cc1 [Compound 44, 1-(4-methoxy-benzenesulfonyl)-7-thiophen-2-yl-1H-pyrrolo[2,3-c]pyridine]	112.2 to 113.7	
COc1ccc(S(=O)(=O)N2CCc3cccc(-c4cccnc4)c32)cc1 [Compound 46, 1-(4-methoxy-benzenesulfonyl)-7-pyridin-3-yl-2,3-dihydro-1H-indole]	178.8 to 181	

Reference: patent US8119683B2, “Aryl substituted sulfonamide compounds and their use as anticancer agents” (Taipei Medical University, priority 2009, dated 2012)
